This test concerns Methicillin-resistente Staphylokokken. Put plainly: Minimal inhibitory concentration in the agar dilution test, 39 clinical isolates. The test is classed as cell-based. The method, then:
Der überraschend gefundene synergistische Effekt einer Kombination von Decaplanin und Cefpirom konnte auch mit 39 klinischen Isolaten (Methicillin-resistente Staphylokokken) gezeigt werden, von denen die meisten eine ausgeprägte Resistenz gegenüber Cefpirom zeigten (MHK > 16 µg/ml). Dazu wurde die minimale Hemmkonzentration im Agarverdünnungstest von Cefpirom, Decaplanin und einer Mischung gleicher Anteile von Cefpirom und Decaplanin bestimmt. Wie Fig. 1 zeigt, ist die antibakterielle Aktivität der Mischung deutlich höher als die jeder Einzelkomponente. Aus Fig. 1 geht hervor, daß die als Beurteilungskriterium üblicherweise herangezogene minimale Hemmkonzentration, bei der 90 % der Stämme gehemmt werden (MHK90%), für die Mischung beider Komponenten mit 0,7 µg/ml am niedrigsten ist. (MHK90% für Decaplanin: 3,5 µg/ml, MHK90% für Cefpirom: 64 µg/ml).
In general terms: Agar dilution tests growth on a series of plates holding different concentrations.

`CO/N=C(\C(=O)N[C@@H]1C(=O)N2C(C(=O)[O-])=C(C[n+]3cccc4c3CCC4)CS[C@H]12)c1csc(N)n1` [Cefpirom]: where the note is “read-out: MHK”, the MIC is over 16 µg/mL. Further, the MIC90 (read-out: MHK90%) came out at 64 µg/mL.
Take `CNC(CC(C)C)C(=O)NC1C(=O)NC(CC(N)=O)C(=O)NC2C(=O)NC3C(=O)NC(C(=O)NC(C(=O)O)c4cc(O)cc(O)c4-c4cc3ccc4O)C(OC3CC(C)(N)C(O)C(C)O3)c3ccc(cc3)Oc3cc2cc(c3OC2OC(CO)C(O)C(O)C2OC2OC(C)C(O)C(O)C2O)Oc2ccc(cc2Cl)C1O` (stereo not drawn) [Decaplanin]: under “minimal inhibitory concentration at which 90 % of the 39 isolates are inhibited, from Fig. 1”, the MHK90% was 3,5 µg/ml.
